Results taken from ChEMBL document CHEMBL6092174, “Synthesis and anti-influenza virus activity of substituted dibenzoxepine-based baloxavir derivatives” (Eur J Med Chem, 2024).

test system: not listed separately; assay: Cytotoxicity against dog MDCK cells assessed as reduction in cell viability incubated for 2 days by CCK-8 assay; type: toxicity, cell-based, Canis lupus familiaris; conditions: time 2 day

Row | SMILES | CC50 at 48 h
1 | O=C1c2c(O)c(=O)ccn2N([C@@H]2c3ccccc3COc3cc(C(F)(F)F)ccc32)[C@@H]2COCCN12 | > 50000 nM
2 | N#Cc1ccc2c(c1)COc1ccccc1[C@H]2N1[C@@H]2COCCN2C(=O)c2c(O)c(=O)ccn21 | > 50000 nM
3 | O=C1c2c(O)c(=O)ccn2N([C@H]2c3ccccc3COc3ccccc32)[C@@H]2COCCN12 | > 50000 nM
4 | CCOC(=O)Cc1ccc2c(c1)[C@H](N1[C@@H]3COCCN3C(=O)c3c(O)c(=O)ccn31)c1ccccc1CO2 | > 50000 nM
5 | O=C1c2c(O)c(=O)ccn2N([C@H]2c3ccccc3COc3cc(F)ccc32)[C@@H]2COCCN12 | > 50000 nM
6 | O=C1c2c(O)c(=O)ccn2N([C@@H]2c3ccccc3COc3cc(F)ccc32)[C@@H]2COCCN12 | > 50000 nM
7 | O=C1c2c(O)c(=O)ccn2N([C@@H]2c3ccccc3COc3c2ccc(F)c3F)[C@@H]2COCCN12 | 22100 nM
8 | O=C1c2c(O)c(=O)ccn2N([C@@H]2c3ccccc3COc3ccccc32)[C@@H]2COCCN12 | > 50000 nM
9 | O=C1c2c(O)c(=O)ccn2N([C@H]2c3ccccc3OCc3c(F)cccc32)[C@@H]2COCCN12 | > 50000 nM
10 | O=C1c2c(O)c(=O)ccn2N([C@@H]2c3ccccc3OCc3c(F)cccc32)[C@@H]2COCCN12 | > 50000 nM
11 | N#Cc1ccc2c(c1)COc1ccccc1[C@@H]2N1[C@@H]2COCCN2C(=O)c2c(O)c(=O)ccn21 | > 50000 nM

test system: Influenza A virus; assay: Antiviral activity against Influenza A virus H3N2 (A/Aichi/2/68) infected in dog MDCK cells assessed as reduction in cytopathic effect incubated for 2 days; type: functional, organism-based; conditions: 48 h

Row | SMILES | EC50
12 | O=C1c2c(O)c(=O)ccn2N([C@@H]2c3ccccc3COc3cc(C(F)(F)F)ccc32)[C@@H]2COCCN12 | 17.2 nM
13 | N#Cc1ccc2c(c1)COc1ccccc1[C@H]2N1[C@@H]2COCCN2C(=O)c2c(O)c(=O)ccn21 | 9.43 nM
14 | O=C1c2c(O)c(=O)ccn2N([C@H]2c3ccccc3COc3ccccc32)[C@@H]2COCCN12 | 1.06 nM
15 | CCOC(=O)Cc1ccc2c(c1)[C@H](N1[C@@H]3COCCN3C(=O)c3c(O)c(=O)ccn31)c1ccccc1CO2 | 36 nM
16 | O=C1c2c(O)c(=O)ccn2N([C@H]2c3ccccc3COc3cc(F)ccc32)[C@@H]2COCCN12 | 1.17 nM
17 | O=C1c2c(O)c(=O)ccn2N([C@@H]2c3ccccc3COc3cc(F)ccc32)[C@@H]2COCCN12 | 3.91 nM
18 | O=C1c2c(O)c(=O)ccn2N([C@@H]2c3ccccc3COc3c2ccc(F)c3F)[C@@H]2COCCN12 | 1.64 nM
19 | O=C1c2c(O)c(=O)ccn2N([C@@H]2c3ccccc3COc3ccccc32)[C@@H]2COCCN12 | 1.75 nM
20 | O=C1c2c(O)c(=O)ccn2N([C@H]2c3ccccc3OCc3c(F)cccc32)[C@@H]2COCCN12 | 7.82 nM
21 | O=C1c2c(O)c(=O)ccn2N([C@@H]2c3ccccc3OCc3c(F)cccc32)[C@@H]2COCCN12 | 8.41 nM
22 | N#Cc1ccc2c(c1)COc1ccccc1[C@@H]2N1[C@@H]2COCCN2C(=O)c2c(O)c(=O)ccn21 | 8.79 nM

test system: not listed separately; assay: Selectivity index, ratio of CC50 for cytotoxicty against MDCK cells to EC50 for antiviral activity against Influenza A virus H3N2 (A/Aichi/2/68) infected in dog MDCK cells; type: toxicity, cell-based; conditions: read-out: Selectivity Index

Row | SMILES | selectivity ratio
23 | O=C1c2c(O)c(=O)ccn2N([C@@H]2c3ccccc3COc3cc(C(F)(F)F)ccc32)[C@@H]2COCCN12 | > 2910
24 | N#Cc1ccc2c(c1)COc1ccccc1[C@H]2N1[C@@H]2COCCN2C(=O)c2c(O)c(=O)ccn21 | > 5300
25 | O=C1c2c(O)c(=O)ccn2N([C@H]2c3ccccc3COc3ccccc32)[C@@H]2COCCN12 | > 47200
26 | CCOC(=O)Cc1ccc2c(c1)[C@H](N1[C@@H]3COCCN3C(=O)c3c(O)c(=O)ccn31)c1ccccc1CO2 | > 1390
27 | O=C1c2c(O)c(=O)ccn2N([C@H]2c3ccccc3COc3cc(F)ccc32)[C@@H]2COCCN12 | > 42700
28 | O=C1c2c(O)c(=O)ccn2N([C@@H]2c3ccccc3COc3cc(F)ccc32)[C@@H]2COCCN12 | > 12800
29 | O=C1c2c(O)c(=O)ccn2N([C@@H]2c3ccccc3COc3c2ccc(F)c3F)[C@@H]2COCCN12 | 13500
30 | O=C1c2c(O)c(=O)ccn2N([C@@H]2c3ccccc3COc3ccccc32)[C@@H]2COCCN12 | > 28600
31 | O=C1c2c(O)c(=O)ccn2N([C@H]2c3ccccc3OCc3c(F)cccc32)[C@@H]2COCCN12 | > 6390
32 | O=C1c2c(O)c(=O)ccn2N([C@@H]2c3ccccc3OCc3c(F)cccc32)[C@@H]2COCCN12 | > 5940
33 | N#Cc1ccc2c(c1)COc1ccccc1[C@@H]2N1[C@@H]2COCCN2C(=O)c2c(O)c(=O)ccn21 | > 5690
